From patent US20230165865A1, “HETEROARYLDIHYDROPYRIMIDINE DERIVATIVES AND METHODS OF TREATING HEPATITIS B INFECTIONS” (Janssen Pharmaceutica NV, priority 2018, published 2023)

System: human hepatocytes
Test: Metabolic stability of test compound in human hepatocyte cell
Assay type: in vitro ADME
Conditions: comparing with reference 1 and reference 2
Description: • 1. The cryopreserved human hepatocytes cells were thawed in 37° C. water bath and diluted with pre-warmed incubation medium to a working cell density of 1×10^6 viable cells/mL. • 2. The 198 μL pre-warmed hepatocyte suspensions were spiked with 2 μL of 100 μM compound or reference compound(Verapamil) at a final concentration of 1.0 μM in a 96-well plate. The plate was incubated at 37° C., 900 rpm. All incubations will be performed in singlet. • 3. 25 μL aliquots of well contents were collected at time points of 0, 15, 30, 60, 90 and 120 minutes. The reactions were stopped by the addition of 6-fold volumes of cold acetonitrile with internal standards. • 4. After centrifugation for 25 minutes at 3,220 g. Aliquot of 100 μL of the supernatant was mixed with 100 μL of ultra-pure H2O and then used for LC-MS/MS analysis.
All calculations were carried out using Microsoft Excel. Peak areas were determined from extracted ion chromatograms. Determine the in vitro half-life (t1/2) of parent compound by regression analysis of the percent parent disappearance vs. time curve.
The in vitro half-life (in vitro t1/2) is determined from the slope value k:
Conversion of the in vitro t1/2(in min) into the in vitro intrinsic clearance (in vitro CLint, in μL/min/10^6 cells) is done using the following equation:
V=incubation volume (0.2 mL);
N=number of hepatocytes per well (0.2×10^6 cells).
Conversion of the in vitro t1/2(in min) into the scale-up intrinsic clearance (CLint(liver), in mL/min/kg) was done using the following equation:
CLint(liver)=kV/N×scaling factor

**Q.** With `CCOC(=O)C1=C(CN2CCN3C(=S)N(CC(C)(C)C(=O)O)CC3C2)NC(c2nccs2)=N[C@H]1c1cccc(F)c1C` (single isomer, unassigned) [Compound 1A] as the compound, how does the “metabolic stability in human hepatocyte cells, in words” value read?
**A.** improved metabolic stability
